In brackets after ≈: the same amount, converted by molar mass. Like-named read-outs stand apart in the source and are kept apart here. Blank lines part the entries; values can stand above or below the molecule they belong to.
Legend:
11 leukemia cell lines = assay: Viability of a panel of 11 leukemia cell lines; format: cell-based; conditions: 48 hours of treatment
Description: Compounds Al-4-88, Al-4-57, Al-10-47, Al-10-104, and Al-14-91 were screened against a panel of 11 leukemia cell lines with varying genotypes.
The viability is represented as the percent DAPI negative cells relative to DMSO control. Each symbol/color in the graphs of FIG. 4 represent an individual cell line. The symbol represents the mean of independent replicates and the error bars represent the SEM. The table indicates the morphology, type of leukemia, and known mutations for each of the 11 cell lines.

[1] = target: CBFβ binding to the RUNX1 Runt domain (Homo sapiens (Human), UniProt Q13951); assay: FRET assay, inhibition of CBFβ binding to the RUNX1 Runt domain; conditions: for IC50: inhibition of wild-type CBFβ binding to the RUNX1 Runt domain, NA = not active; for activity in FRET assay (structure-activity relationship, in words): relative to Al-4-57 or parent compounds
Sequence of CBFβ binding to the RUNX1 Runt domain (Q13951 1-141): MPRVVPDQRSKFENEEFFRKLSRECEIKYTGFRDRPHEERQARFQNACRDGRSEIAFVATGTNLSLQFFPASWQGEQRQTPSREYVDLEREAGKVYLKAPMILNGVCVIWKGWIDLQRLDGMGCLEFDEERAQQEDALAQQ
Description: Fluorescence Resonance Energy Transfer (FRET) Assay:
As described in U.S. Pat. No. 8,748,618 and published PCT application WO2010/132684, a FRET assay can be used to effectively monitor the inhibition of CBF binding to the Runt domain of RUNX proteins (as well as for CBFβ-SMMHC binding to the Runt domain of RUNX proteins). For the assay, the green fluorescent protein derivative Cerulean is fused to the N-terminus of the Runt domain and the green fluorescent protein derivative Venus to the N-terminus of CBFβ (Gorczynski, M. J., J. Grembecka, et al. (2007), “Allosteric inhibition of the protein-protein interaction between the leukemia-associated proteins Runx1 and CBFbeta.” Chem Biol 14(10): 1186-97), or to CBFβ-SMMHC (Illendula, A. et al. Chemical biology. A small-molecule inhibitor of the aberrant transcription factor CBFbeta-SMMHC delays leukemia in mice. Science 347, 779-784, doi:10.1126/science.aaa0314 (2015)). The ratio of the emission intensities at 525 nm and 474 nm, measured after excitation at 433 nm, was used as the readout in this assay. The dynamic range for the FRET assay was determined by adding a 30-fold excess of untagged CBFβ (or CBFβ-SMMHC) to the assay and the associated change in the FRET ratio was defined as 100% inhibition.

[2] = target: CBFβ-SMMHC binding to the RUNX1 Runt domain; conditions: U.S. Pat. No. 8,748,618; read-out: IC50, binding of CBF-SMMHC to the RUNX1 Runt domain; cited from earlier work
[3] = previous work, Illendula et al. Science 2015; cited from earlier work
[4] = Aqueous solubility in 0.25% DMSO by NMR spectroscopy; format: physicochemical; conditions: kinetic from dmso stock
Description: Al-10-104, Al-12-126, and Al-14-91 were all soluble at concentrations above 100 μM. […] As the Runt domain is highly conserved among all three RUNX family members, we would expect to see similar effects on binding to RUNX2 or RUNX3. Therefore, the action of the inhibitors will likely affect the activity of all three RUNX family members.

[5] = target: binding of CBFβ to RUNX1 in SEM cells (Homo sapiens (Human), UniProt Q13951); assay: Co-immunoprecipitation of CBFβ with RUNX1 in SEM cells; format: cell-based; conditions: 10 μM, 6 hours
Sequence of binding of CBFβ to RUNX1 in SEM cells (Q13951 whole entry): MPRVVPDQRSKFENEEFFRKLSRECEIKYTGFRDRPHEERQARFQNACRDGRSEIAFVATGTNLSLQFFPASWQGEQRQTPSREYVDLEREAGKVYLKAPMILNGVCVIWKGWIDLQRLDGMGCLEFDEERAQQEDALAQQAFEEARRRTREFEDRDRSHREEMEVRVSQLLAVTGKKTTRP
Description: To test whether the wild-type CBFβ Inhibitors can disrupt the binding of CBFβ to RUNX1 in cells, co-immunoprecipitation experiments were performed in the SEM cell line. Co-immunoprecipitation assays of lysates from […] SEM cells were treated with Al-4-88^1, Al-10-47, Al-10-104, Al-12-126 and Al-14-91 at 10 μM for 6 hours. RUNX1-bound CBFβ protein levels and immunoprecipitated RUNX1 are shown on the top panel of FIG. 2A. Quantification of RUNX1 bound CBFβ is shown on the bottom graph.

MLL-AF4 leukemia cells = assay: Cell death of MLL-AF4 leukemia cells; format: cell-based, human
[6] = system: T-ALL cell lines Jurkat, HBP-ALL, Loucy, and KOPTK1; assay: Proliferation of T-ALL cell lines; format: cell-based, human
H520 lung cancer cells = assay: MTT growth assay, H520 cells; format: cell-based; conditions: H520, 10 μM, 72 hrs
Description: (§1) Activity of Al-10-104 was tested using several lung cancer cell lines and one immortalized, non-transformed lung cell line. […] Data for the squamous cell carcinoma of the lung cell line H520 and the immortalized normal lung epithelial cell line BEAS-2B are shown in FIG. 10.
(§2) H520 cells were cultured in RPMI 1640 medium, supplemented with fetal bovine serum (10% final concentration), Hepes (1%), and sodium priruvate (1%). The MTT assay used 4×10^5/ml cells. BEAS-2B cells were cultured in DMEM medium with fetal bovine serum (10% final concentration). The MTT assay for the BEAS-2B cell line was performed using 3.5×10^5/ml cells.
(§3) Al-4-88 had no effect on either cell line.

[7] = system: BEAS-2B normal lung cells; assay: MTT growth assay, BEAS-2B cells; format: cell-based; conditions: 10 μM, 72 hrs
Description: as §1, §2, §3

[8] = Sedative effects and tolerability in mice after IP administration; format: in vivo; conditions: HCl salts with Captisol, IP at 100 mg/kg
Description: “NA” indicates not active. […] Reasoning that this effect depended on the ability of the compound to cross the blood brain barrier (BBB), compounds Al-12-126 and Al-14-91 have appended morpholine ring substituents to the 5 position of the pyridine ring to increase the polarity of the compounds and thereby limit BBB penetration.

MCF10A-5E cells = assay: Multiacini formation in 3D culture of MCF10A-5E cells; format: cell-based; conditions: shRUNX1 or control cells, 3D culture 10-11 days, compared to carrier control or Al-4-88
Description: CBFβ inhibitors altered acinar morphogenesis of the basal-like (triple negative) breast epithelial cells and blocked survival of basal-like breast cancer cells in 3D organotypic culture. To evaluate whether CBFβ inhibition would influence the multicellular organization of basal-like breast epithelia, 3D culture of MCF10A-5E cells was used. Knockdown of RUNX1 in these cells delayed proliferation arrest and promoted the formation of nonspherical acini, indicating a role for RUNX1 during morphogenesis.
The multiacini resulting from CBFβ inhibition were not radially symmetric, thereby arguing against a general defect in cell polarity or proliferation arrest. Instead, the inhibitors appeared to be initiating a nascent branching program that is reminiscent of when TGFβ-family signaling is impaired.
FIG. 9A: MCF10A-5E cells stably expressing shRUNX1 or shGFP control were grown in 3D culture for 10-11 days with the indicated compounds and imaged by Brightfield microscopy. The total number of multiacini per chamber was counted and scaled to the shGFP DMSO control. Data are shown as the mean±SEM of eight independent cultures.

[9] = aqueous, 0.25% DMSO, NMR spectroscopy, read-out: aqueous solubility

SMILES: COc1ccc2[nH]c(-c3ccccn3)nc2c1 [Al-4-57]
- percent viability (DAPI negative cells relative to DMSO) (11 leukemia cell lines): only very weak activity
- IC50 [1]: 34 µM
- IC50 [2]: 22 µM
- half-life in mice [3]: short half-life

SMILES: FC(F)(F)Oc1ccc2[nH]c(-c3ncccc3OCCN3CCOCC3)nc2c1 [Al-14-55]
- IC50 [1]: 4.83 ± 0.32 µM

SMILES: FC(F)(F)Oc1ccc2[nH]c(-c3ccccn3)nc2c1 [Al-10-47]
- percent viability (DAPI negative cells relative to DMSO) (11 leukemia cell lines): significant inhibition of the majority of the cell lines
- IC50 [1]: 3.19 ± 0.5 µM
- solubility [4]: 0.44 µM (≈ 0.123 µg/mL)
- RUNX1-bound CBFβ (co-immunoprecipitation) [5]: only a modest effect
- cell death (MLL-AF4 leukemia cells): induced cell death

SMILES: c1ccc(-c2nc3ccccc3[nH]2)nc1 [Al-4-88, reference compound]
- percent viability (DAPI negative cells relative to DMSO) (11 leukemia cell lines): No activity
- proliferation [6]: did not have such an effect
- cell growth (MTT assay) (H520 lung cancer cells): no effect
- cell growth (MTT assay) [7]: no effect

SMILES: CN(C)c1cccnc1-c1nc2cc(OC(F)(F)F)ccc2[nH]1 [Al-14-18]
- IC50 [1]: 4.97 ± 0.27 µM

SMILES: COc1ccnc(-c2nc3cc(OC(F)(F)F)ccc3[nH]2)c1OC [Al-14-72]
- IC50 [1]: 1.72 ± 0.23 µM

SMILES: FC(F)(F)Oc1ccc2[nH]c(-c3ccc(OCCN4CCOCC4)cn3)nc2c1 [Al-12-126]
- IC50 [1]: 8.91 ± 1.3 µM
- sedative effects [8]: did not induce the sedative effects
- tolerability [8]: well-tolerated
- solubility [4, 9]: > 100 µM
- RUNX1-bound CBFβ (co-immunoprecipitation) [5]: reduction in binding

SMILES: O=C(O)c1cccnc1-c1nc2cc(OC(F)(F)F)ccc2[nH]1 [Al-12-150]
- IC50 [1]: 48.9 ± 1.6 µM

SMILES: COc1cnc(-c2nc3cc(OC(F)(F)F)ccc3[nH]2)c(OC)c1 [Al-12-16]
- IC50 [1]: 1.69 ± 0.18 µM

SMILES: COc1cc(OCCN2CCOCC2)cnc1-c1nc2cc(OC(F)(F)F)ccc2[nH]1 [Al-14-91]
- percent viability (DAPI negative cells relative to DMSO) (11 leukemia cell lines): significant inhibition of the majority of the cell lines
- IC50 [1]: 2.97 ± 0.53 µM
- sedative effects [8]: did not induce the sedative effects
- tolerability [8]: well-tolerated
- formation of multiacinar structures (MCF10A-5E cells): dramatic increase
- solubility [4, 9]: > 100 µM
- RUNX1-bound CBFβ (co-immunoprecipitation) [5]: reduction in binding

Next, values leading:

- activity in FRET assay (structure-activity relationship, in words) [1]: inactive
SMILES: COc1ccc2[nH]c(-c3cccc(C)n3)nc2c1 [Compound 4h, 5-methoxy-2-(6-methylpyridin-2-yl)-1H-benzo[d]imidazole]

- activity in FRET assay (structure-activity relationship, in words) [1]: complete loss of activity
SMILES: c1ccc(-c2nc3ccccc3[nH]2)nc1 [Compound 3a, 2-(pyridin-2-yl)-1H-benzo[d]imidazole]

- IC50 [1]: ≥ 34.3 µM
- activity in FRET assay (structure-activity relationship, in words) [1]: reduced activity
SMILES: COc1cccc2[nH]c(-c3ccccn3)nc12 [Compound 4a, 4-methoxy-2-(pyridin-2-yl)-1H-benzo[d]imidazole]

- activity in FRET assay (structure-activity relationship, in words) [1]: inactive
SMILES: COc1ccc2[nH]c(-c3cccc(OC)n3)nc2c1 [Compound 4g, 5-methoxy-2-(6-methoxypyridin-2-yl)-1H-benzo[d]imidazole]

- activity in FRET assay (structure-activity relationship, in words) [1]: loss of activity
SMILES: FC(F)(F)c1ccc2[nH]c(-c3ccccn3)nc2c1 [Compound 3f, 2-(pyridin-2-yl)-5-(trifluoromethyl)-1H-benzo[d]imidazole]

- activity in FRET assay (structure-activity relationship, in words) [1]: complete loss of activity
SMILES: COc1ccc2[nH]c(-c3ccccc3)nc2c1 [Compound 2a, 5-methoxy-2-phenyl-1H-benzo[d]imidazole]

- IC50 [1]: ≥ 34.3 µM
SMILES: CCOc1ccc2[nH]c(-c3ccccn3)nc2c1 [Compound 3b, 5-ethoxy-2-(pyridin-2-yl)-1H-benzo[d]imidazole]

- IC50 [1]: ≥ 34.3 µM
SMILES: Fc1ccc2[nH]c(-c3ccccn3)nc2c1 [Compound 3c, 5-fluoro-2-(pyridin-2-yl)-1H-benzo[d]imidazole]

- activity in FRET assay (structure-activity relationship, in words) [1]: complete loss of activity
SMILES: COc1ccc2[nH]c(-c3ccco3)nc2c1 [Compound 2b, 2-(furan-2-yl)-5-methoxy-1H-benzo[d]imidazole]

- activity in FRET assay (structure-activity relationship, in words) [1]: loss of activity
SMILES: Cc1ccc2[nH]c(-c3ccccn3)nc2c1 [Compound 3d, 5-methyl-2-(pyridin-2-yl)-1H-benzo[d]imidazole]

Source: patent US10562890B2, “Cancer therapeutics” (UNIVERSITY OF VIRGINIA PATENT FOUNDATION, priority 2014, dated 2020)
